How the values were obtained:
[1] = Particle characteristics of the prepared formulation by particle size analyzer (Dynamic Light Scattering, DLS); type: physicochemical; details: mRNA formulation, compound:DOPE:Cholesterol:DMG-PEG=50:10:38.5:1.5, N/P ratio 6; for PDI (PI) / Z-average: DLS
Method: (§1) According to the following table 1, the materials required for preparing the formulation were dissolved in each dilution solvent and prepared at the required concentration. When dissolving, the materials were kept at room temperature and then the solvent was added to dissolve them.
(§2) The required amounts of the raw materials were mixed in order to meet the N/P ratio (amine group of lipid/phosphate group of mRNA) of 6 and each compound of formulas A to G:DOPE:Cholesterol:DMG-PEG=50:10:38.5:1.5. Ethanol was added to the ethanol layer so that the molecular total of all raw materials was within 12.5 mM, and the aqueous phase and ethanol phase were mixed maintaining a volume ratio of 3:1. After the mixing, to reduce the total ethanol content, buffer exchange was performed as follows: The mixture solution was concentrated by centrifugation at 4,000 rpm using an Amicon-Ultra tube filter (Merk Millipore, UFC505096 or UFC805024, pore size: 50K, volume: 15 mL), then diluted with PBS and centrifuged to concentrate. This process was repeated to exchange the buffer.
(§3) The more concrete procedure is as follows: • 1) Two autoclaved tubes were prepared (tubes (A) and (B)). • 2) In tube (A), each compound of formulas A to G, DOPE, cholesterol and DMG-PEG in molar quantities calculated according to the experimental conditions were sequentially added and mixed by vortexing. • 3) In the ethanol phase, when necessary, ethanol was added so that the molecular total of all raw materials was within 12.5 mM. • 4) In tube (B), mRNA and 20 mM sodium acetate buffer (pH 4.6) were mixed. At that time, the ratio was calculated and added so that the aqueous phase was total three times the amount of the ethanol phase. • 5) Mixing of Tube (A) and Tube (B) was performed using a Microfluidics (Ignite, Precision Nanosystem) device. Microfluidics operating conditions were FRR (Flow Rate Ratio) of C:R=3:1 and […] (Total Flow Rate) of 12 mL/min. • 6) The resulting mixture from step 5) was centrifuged at 4,000 rpm using an Amicon-Ultra tube filter (50K), and the process of concentration and dilution was repeated to remove excess ethanol, and then concentrated to a final x mg/ml (theoretical concentration).
(§4) • 1) For the prepared formulation, particle characteristics were confirmed using a particle size analyzer (Dynamic Light Scattering, DLS), and the results are shown in Table 2 below. • 2) For the prepared formulation, mRNA encapsulation efficiency was confirmed through Ribo-green assay, and the results are shown in Table 1 below.

[2] = mRNA encapsulation efficiency by Ribo-green assay; type: physicochemical; details: mRNA formulation, compound:DOPE:Cholesterol:DMG-PEG=50:10:38.5:1.5, N/P ratio 6
Method: as §1, §2, §3, §4

SMILES	Zeta-potential [1] [mV]	PDI (PI) [1]	Z-average [1] [nm]	Encapsulation efficiency [2] [%]
CCCCCCCCC(OC(=O)CCCCCCCN(CCO)CCCCCCCC(=O)OC(CCCCCCCC)C1CC1)C1CC1 (centres unmarked) [Formula E]	−4.69 ± 1.56	0.10 ± 0.04	127.4 ± 0.52	98.4 ± 0.5
CCCCCCCCC(OC(=O)CCCCCCCN(C)CCCCCCCC(=O)OC(CCCCCCCC)C1CC1)C1CC1 (centres unmarked) [Formula A]	−10.96 ± 2.69	0.09 ± 0.01	135.0 ± 0.46	
CCCCCCC(OC(=O)CCCCCCCN(C)CCCCCCCC(=O)OC(CCCCCC)C1CC1)C1CC1 (centres unmarked) [Formula G]	−6.93 ± 1.48	0.17 ± 0.02	194.9 ± 3.59	92.1 ± 0.1

The remaining lines, values ahead:

Zeta-potential [1] [mV]	PDI (PI) [1]	Z-average [1] [nm]	Encapsulation efficiency [2] [%]	SMILES
−2.37 ± 0.39	0.07 ± 0.04	154.6 ± 2.75	97.6 ± 0.2	CCCCCCCCC(OC(=O)CCCCCCCN(C)CCCCCCCC(=O)OC(CCCCCCCC)C1CCCCC1)C1CCCCC1 (centres unmarked) [Formula D]
−6.24 ± 3.13	0.12 ± 0.02	131.5 ± 0.12	91.1 ± 0.2	CCCCCCCCC(C(=O)OCCCCCCCN(C)CCCCCCCOC(=O)C(CCCCCCCC)C1CC1)C1CC1 (centres unmarked) [Formula F]
−4.30 ± 3.03	0.12 ± 0.03	183.3 ± 2.86		CCCCCCC(OC(=O)CCCCCN(C)CCCCCC(=O)OC(CCCCCC)C1CC1)C1CC1 (centres unmarked) [Formula B]
−7.57 ± 4.12	0.12 ± 0.00	120.0 ± 2.38	95.4 ± 0.2	CCCCCCCCCCC(OC(=O)CCCCCCCN(C)CCCCCCCC(=O)OC(CCCCCCCCCC)C1CC1)C1CC1 (centres unmarked) [Formula C]

— US20260209171A1, “CATIONIC LIPIDS AND MANUFACTURING METHOD THEREFOR” (SAMYANG HOLDINGS CORPORATION, priority 2022, published 2026)
